The text below walks through data of ChEMBL document CHEMBL5441456, “ASAP - SARS-CoV-2 nsp3 macrodomain dose response” (2024).

Values joined by “and” are separate entries in the source; they are usually repeats but may differ in a detail not shown here. Identical values can stand only once.

As usually defined, the IC50 is the concentration that inhibits the measured activity by half. Higher therefore signals weaker potency.

This assay has as its target Replicase polyprotein 1ab (Severe acute respiratory syndrome coronavirus 2, UniProt P0DTD1). As to the kind of experiment: Functional biochemical assay to identify treatments for viral infectious disease that targets SARS-COV-2 nsp3 macrodomain, whereby the mechanism of action displaces an ADP-Ribose modified peptide from the binding site. Utilizing a time-resolved fluorescence method to measure binding by reading the emitted fluorescence intensity in two wavelengths.
For `CCNC(=O)c1cc2c(N[C@@H](c3ccc4c(c3)OCCO4)C(C)C)ncnc2[nH]1`, the IC50 was 280 nM and 305 nM and 287 nM and 614 nM.
With `Cc1ncc(-c2cc3c(N[C@@H](c4ccc5c(c4)OCCO5)C(C)C)ncnc3[nH]2)cn1` the figure was 479 nM and 585 nM.
Turning to `CC(C)[C@@H](Nc1ncnc2[nH]c(-c3cnn(CCC(N)=O)c3)cc12)c1ccc2c(c1)OCCO2`, the IC50 is 274 nM and 319 nM.
With `CC(C)[C@@H](Nc1ncnc2[nH]c(C(N)=O)cc12)c1ccc2c(c1)OCCO2`, the IC50 is 453 nM and 466 nM.
For `Cn1ncc(-c2cc3c(N[C@@H](c4ccc5c(c4)OCCO5)C(C)(C)C)ncnc3[nH]2)c1C#N`, the IC50 was 309 nM and 332 nM.
For the compound `CC(C)[C@@H](Nc1ncnc2[nH]c(-c3cnn(C)n3)cc12)c1ccc2c(c1)OCCO2`, the IC50 was 485 nM and 517 nM.
On to `CC(C)[C@@H](Nc1ncnc2[nH]c(C3CCS(=O)(=O)CC3)cc12)c1ccc2c(c1)OCCO2`, for which the IC50 is 1190 nM and 1780 nM.
The same measure for `CCn1ncc(-c2cc3c(N[C@@H](c4ccc5c(c4)OCCO5)C(C)C)ncnc3[nH]2)c1C`: 905 nM and 1060 nM; for `CC(C)[C@@H](Nc1ncnc2[nH]c(-c3ccoc3C#N)cc12)c1ccc2c(c1)OCCO2`: 2710 nM and 2670 nM.
For `CCn1ncc(-c2cc3c(N[C@@H](c4ccc5c(c4)OCCO5)C(C)C)ncnc3[nH]2)c1C#N`, the IC50 was 857 nM and 800 nM.
With `CC(C)[C@@H](Nc1ncnc2[nH]c(-c3cccc(NC(N)=O)c3)cc12)c1ccc2c(c1)OCCO2` the figure was 5140 nM and 5850 nM; with `COc1cnn(C)c1-c1cc2c(N[C@@H](c3ccc4c(c3)OCCO4)C(C)C)ncnc2[nH]1`, 50900 nM and 55900 nM; with `CCn1ncc(-c2cc3c(N[C@@H](c4ccc5c(c4)OCCO5)C(C)C)ncnc3[nH]2)n1`, 1070 nM and 1240 nM.
With `CC(C)[C@@H](Nc1ncnc2[nH]c(-c3ccc(-n4cccn4)cc3)cc12)c1ccc2c(c1)OCCO2`, the IC50 is above 99500 nM.
`CC(C)[C@@H](Nc1ncnc2[nH]c(-c3ccnn3C3CCC3)cc12)c1ccc2c(c1)OCCO2`: the IC50 is 5590 nM and 8760 nM.
The same measure for `CC(C)[C@@H](Nc1ncnc2[nH]c([C@@H]3CCOC3)cc12)c1ccc2c(c1)OCCO2`: 1860 nM and 1950 nM.
On to `Cc1c(C#N)cncc1-c1cc2c(N[C@@H](c3ccc4c(c3)OCCO4)C(C)C)ncnc2[nH]1`, for which the IC50 is 19200 nM and 16300 nM.
With `C[C@@H](C(=O)O)[C@@H](NC(=O)c1ncnc2[nH]ccc12)c1ccc(Br)cc1`, the IC50 is 808 nM and 532 nM.
For the compound `CC(C)[C@@H](Nc1ncnc2[nH]ccc12)c1ccc2c(c1)N(C)C(=O)CO2`, the IC50 was 67700 nM and 67400 nM.
Take `CNCc1cc(-c2cc3c(N[C@@H](c4ccc5c(c4)OCCO5)C(C)C)ncnc3[nH]2)co1`: the IC50 was 281 nM and 383 nM.
With `CC(C)[C@@H](Nc1ncnc2[nH]c(-c3cccc4c3CN(C)C4=O)cc12)c1ccc2c(c1)OCCO2` the figure was 2150 nM and 2540 nM.
The same measure for `CC(C)[C@H](Nc1ncnc2[nH]c(-c3cnn(CC(N)=O)c3)cc12)c1ccc2c(c1)OCCO2`: 90000 nM and 93500 nM; for `CC(C)[C@@H](Nc1ncnc2[nH]c(-c3cncn3C)cc12)c1ccc2c(c1)OCCO2`: 5770 nM and 7420 nM; for `COC(=O)c1c[nH]c2ncnc(N[C@@H](c3ccc4c(c3)OCCO4)C(C)C)c12`: 3110 nM and 3490 nM.
Consider `CC(C)[C@@H](Nc1ncnc2[nH]c(-c3cnn(C(C)C)c3C#N)cc12)c1ccc2c(c1)OCCO2`, for which the IC50 is 1840 nM and 2020 nM.
The same measure for `CCn1ccc(-c2cc3c(N[C@@H](c4ccc5c(c4)OCCO5)C(C)C)ncnc3[nH]2)n1`: 1320 nM and 1530 nM.
On to `CC(C)[C@@H](Nc1ncnc2[nH]c(-c3ccnn3CC3CC3)cc12)c1ccc2c(c1)OCCO2`, for which the IC50 was 4220 nM and 3900 nM.
With `Cc1n[nH]c(-c2cc3c(N[C@@H](c4ccc5c(c4)OCCO5)C(C)C)ncnc3[nH]2)c1C` the figure was 5160 nM and 4510 nM; with `CC(C)[C@@H](Nc1ncnc2[nH]c(-c3[nH]ncc3C3CC3)cc12)c1ccc2c(c1)OCCO2`, 16100 nM and 14300 nM; with `CC(C)[C@@H](Nc1ncnc2[nH]c(-c3cccc(CN4CCCS4(=O)=O)c3)cc12)c1ccc2c(c1)OCCO2`, above 99500 nM.
Take `Cc1cc(-c2cc3c(N[C@@H](c4ccc5c(c4)OCCO5)C(C)C)ncnc3[nH]2)nn1C`: the IC50 was 2790 nM and 1620 nM.
As for `CC(C)[C@@H](Nc1ncnc2[nH]c(-c3ccn(C)n3)cc12)c1ccc2c(c1)OCCO2`, the IC50 is 972 nM and 1020 nM.
On to `CC(C)[C@@H](Nc1ncnc2[nH]c(-c3cnc(C4CC4)o3)cc12)c1ccc2c(c1)OCCO2`, for which the IC50 is 3280 nM and 3760 nM.
With `Cc1cc(-c2cc3c(N[C@@H](c4ccc5c(c4)OCCO5)C(C)C)ncnc3[nH]2)[nH]n1`, the IC50 is 2560 nM and 3090 nM.
For the compound `Cc1ccoc1-c1cc2c(N[C@@H](c3ccc4c(c3)OCCO4)C(C)C)ncnc2[nH]1`, the IC50 is 43900 nM and 39700 nM.
With `CC(=O)c1ccc(-c2cc3c(N[C@@H](c4ccc5c(c4)OCCO5)C(C)C)ncnc3[nH]2)[nH]1`, the IC50 is 2970 nM and 3240 nM.
With `CC(C)[C@@H](Nc1ncnc2[nH]c(-c3ccn(C(C)C)n3)cc12)c1ccc2c(c1)OCCO2`, the IC50 is 2270 nM and 2620 nM.
For `CC(C)[C@@H](Nc1ncnc2[nH]c(-c3cncc(OCCN(C)C)c3)cc12)c1ccc2c(c1)OCCO2`, the IC50 was 903 nM and 891 nM.
Take `CC(C)[C@@H](Nc1ncnc2[nH]c(-c3ccnn3C3CC3)cc12)c1ccc2c(c1)OCCO2`: the IC50 is 1080 nM and 1230 nM.
As to `CC(C)[C@@H](Nc1ncnc2[nH]cc(S(=O)(=O)N(C)C)c12)c1ccc2c(c1)OCCO2`, the IC50 was 3450 nM and 3980 nM.
With `Cc1cnn(-c2ccc(-c3cc4c(N[C@@H](c5ccc6c(c5)OCCO6)C(C)C)ncnc4[nH]3)cc2)c1` the figure was above 99500 nM; with `CC(C)[C@@H](Nc1ncnc2[nH]c(-c3ccc(C#N)nc3)cc12)c1ccc2c(c1)OCCO2`, 1850 nM and 2130 nM.
The same measure for `CC(C)[C@@H](Nc1ncnc2[nH]c(-c3cn(C)nc3C3CC3)cc12)c1ccc2c(c1)OCCO2`: 1190 nM; for `CNS(=O)(=O)c1c[nH]c2ncnc(N[C@@H](c3ccc4c(c3)OCCO4)C(C)C)c12`: 2570 nM and 2600 nM; for `CC(C)[C@@H](Nc1ncnc2[nH]c(-c3cncc(C#N)c3)cc12)c1ccc2c(c1)OCCO2`: 5810 nM and 7130 nM.
`CC(C)[C@@H](Nc1ncnc2[nH]c(-c3ccc(C4(C#N)CC4)cc3)cc12)c1ccc2c(c1)OCCO2` had an IC50 above 99500 nM.
The same measure for `CC(C)[C@@H](Nc1ncnc2[nH]c(-c3ccnc(N4CCCC4)c3)cc12)c1ccc2c(c1)OCCO2`: 16600 nM and 17200 nM; for `CC(=O)c1ccc(-c2cc3c(N[C@@H](c4ccc5c(c4)OCCO5)C(C)C)ncnc3[nH]2)o1`: 1510 nM and 1450 nM; for `CC(C)c1n[nH]cc1-c1cc2c(N[C@@H](c3ccc4c(c3)OCCO4)C(C)C)ncnc2[nH]1`: 2010 nM and 2070 nM.
The compound `CC(C)[C@@H](Nc1ncnc2[nH]c(-c3cc4c(C#N)cccc4[nH]3)cc12)c1ccc2c(c1)OCCO2` displayed an IC50 above 99500 nM.
With `CC(C)[C@@H](Nc1ncnc2[nH]c(-c3cn(C)nc3C#N)cc12)c1ccc2c(c1)OCCO2` the figure was 871 nM and 843 nM.
Take `COCCn1ncc(-c2cc3c(N[C@@H](c4ccc5c(c4)OCCO5)C(C)C)ncnc3[nH]2)c1C#N`: the IC50 is 394 nM and 449 nM.
As to `Cc1cocc1-c1cc2c(N[C@@H](c3ccc4c(c3)OCCO4)C(C)C)ncnc2[nH]1`, the IC50 is 2510 nM and 2580 nM.
With `Cc1noc(C)c1-c1cc2c(N[C@@H](c3ccc4c(c3)OCCO4)C(C)C)ncnc2[nH]1` the figure was 16700 nM and 18500 nM.
As to `COc1ccc([C@@](C)(CC(=O)O)NC(=O)c2ncnc3[nH]ccc23)cc1`, the IC50 is 19300 nM and 18200 nM.
With `CC(C)[C@@H](Nc1ncnc2[nH]c(-c3cnn(C4CCC4)n3)cc12)c1ccc2c(c1)OCCO2` the figure was 3840 nM and 3920 nM.
Consider `CC(C)[C@@H](Nc1ncnc2[nH]c(-c3ccnc(C#N)c3)cc12)c1ccc2c(c1)OCCO2`, for which the IC50 was 2090 nM and 2220 nM.
With `CC(C)[C@@H](Nc1ncnc2[nH]c(-c3ccc(S(N)(=O)=O)cc3)cc12)c1ccc2c(c1)OCCO2` the figure was 1630 nM and 1810 nM; with `CC(C)[C@@H](Nc1ncnc2[nH]c(-c3cnc(C#N)nc3)cc12)c1ccc2c(c1)OCCO2`, 2520 nM and 2510 nM; with `CC(C)[C@@H](Nc1ncnc2[nH]c(C(=O)N(C)C)cc12)c1ccc2c(c1)OCCO2`, 21900 nM and 18900 nM.
The compound `Cc1coc(-c2cc3c(N[C@@H](c4ccc5c(c4)OCCO5)C(C)C)ncnc3[nH]2)c1` showed an IC50 above 99500 nM.
The same measure for `Cc1nn(C)nc1-c1cc2c(N[C@@H](c3ccc4c(c3)OCCO4)C(C)C)ncnc2[nH]1`: 27600 nM and 34200 nM; for `Cc1cn(C)nc1-c1cc2c(N[C@@H](c3ccc4c(c3)OCCO4)C(C)C)ncnc2[nH]1`: above 99500 nM.
Compound `COc1cc(Nc2ccc(C(=O)N[C@@H]3c4cccc(O)c4C[C@H]3C(=O)O)cc2)[nH]n1` showed an IC50 above 99500 nM.
`CC(C)[C@@H](Nc1ncnc2[nH]c(-c3ccc4nccn4c3)cc12)c1ccc2c(c1)OCCO2`: the IC50 is 1140 nM and 1380 nM.
As to `CCn1cc(-c2cc3c(N[C@@H](c4ccc5c(c4)OCCO5)C(C)C)ncnc3[nH]2)c(C)n1`, the IC50 is 423 nM and 473 nM.
Take `CC(C)[C@@H](Nc1ncnc2[nH]c(-c3ccc4[nH]ncc4c3)cc12)c1ccc2c(c1)OCCO2`: the IC50 was 20500 nM and 19700 nM.
On to `COc1nn(C)cc1-c1cc2c(N[C@@H](c3ccc4c(c3)OCCO4)C(C)C)ncnc2[nH]1`, for which the IC50 was 1790 nM and 1910 nM.
Take `CC(C)[C@@H](Nc1ncnc2[nH]c(-c3cccc(C#N)c3)cc12)c1ccc2c(c1)OCCO2`: the IC50 was 17800 nM and 22100 nM.
With `Cc1cc(-c2cc3c(N[C@@H](c4ccc5c(c4)OCCO5)C(C)C)ncnc3[nH]2)c[nH]1` the figure was 9530 nM and 10200 nM; with `Cc1cc(-c2cc3c(N[C@@H](c4ccc5c(c4)OCCO5)C(C)C)ncnc3[nH]2)n(C)n1`, 1070 nM and 1020 nM.
With `CCn1cc(-c2cc3c(N[C@@H](c4ccc5c(c4)OCCO5)C(C)C)ncnc3[nH]2)cn1`, the IC50 was 626 nM and 652 nM.
Take `COC(=O)c1c[nH]c(-c2cc3c(N[C@@H](c4ccc5c(c4)OCCO5)C(C)C)ncnc3[nH]2)c1`: the IC50 was 2980 nM and 3580 nM.
With `CC(C)[C@@H](Nc1ncnc2[nH]c(-c3cnn(CC4CC4)c3)cc12)c1ccc2c(c1)OCCO2`, the IC50 is 804 nM and 853 nM.
Consider `CC(C)[C@@H](Nc1ncnc2[nH]c(-c3ccoc3)cc12)c1ccc2c(c1)OCCO2`, for which the IC50 was 1520 nM and 1640 nM.
The same measure for `COc1ccc([C@@H](CC(=O)O)NC(=O)c2c[nH]c3c(NC(=O)NC4CC4)cccc23)cc1`: above 99500 nM.
As to `CC(C)[C@@H](Nc1ncnc2[nH]c(C3=CCOC3)cc12)c1ccc2c(c1)OCCO2`, the IC50 is 421 nM and 563 nM.
